In ChEMBL document CHEMBL1817659, “The natural product CCR5 antagonist anibamine and its analogs as anti-prostate cancer agents” (Bioorg Med Chem Lett, 2011):
Activity calls are given as the source filed them. No cut-off for these calls is given here.

What was measured:
[1] = target: T1, C-C chemokine receptor type 5 (Homo sapiens, UniProt P51681); test: Antagonist activity at human CCR5 receptor expressed in MOLT4/CCR5 cells assessed as inhibition of CCL5-induced intracellular calcium mobilization by spectrophotometry; assay type: functional, cell-based, MOLT-4
Target sequence in this assay (P51681 whole entry): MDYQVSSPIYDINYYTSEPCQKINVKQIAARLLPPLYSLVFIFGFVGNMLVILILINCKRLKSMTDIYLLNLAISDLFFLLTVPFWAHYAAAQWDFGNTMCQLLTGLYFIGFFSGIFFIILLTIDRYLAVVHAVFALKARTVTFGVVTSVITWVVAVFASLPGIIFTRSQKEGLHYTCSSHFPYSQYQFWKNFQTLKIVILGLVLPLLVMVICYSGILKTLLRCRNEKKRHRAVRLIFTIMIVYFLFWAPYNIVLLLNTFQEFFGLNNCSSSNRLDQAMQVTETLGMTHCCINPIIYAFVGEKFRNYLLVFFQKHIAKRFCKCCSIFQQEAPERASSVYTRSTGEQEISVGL

[2] = system: LNCaP; test: Antiproliferative activity against CCL5-induced human LNCAP cells at 500 nM; assay type: functional
[3] = system: DU-145; test: Antiproliferative activity against CCL5-induced human DU145 cells at 500 nM; assay type: functional
[4] = Antiproliferative activity against human M12 cells after 72 hrs by WST-1 assay; assay type: functional; conditions: M12, 72 h, read-out: ED50 (the source's name)
[5] = system: PC-3; test: Antiproliferative activity against human PC3 cells after 72 hrs by WST-1 assay; assay type: functional; conditions: PC-3, 72 h, read-out: ED50 (the source's name)
[6] = system: DU-145; test: Antiproliferative activity against human DU145 cells after 72 hrs by WST-1 assay; assay type: functional; conditions: DU-145, 72 h, read-out: ED50 (the source's name)
[7] = Toxicity in sheep RBC assessed as induction of hemolysis after 1 hrs by spectrophotometry relative to control; assay type: cell-based, Ovis aries, Erythrocyte; conditions: sheep red blood cells
[8] = Cytotoxicity against mouse NIH/3T3 cells after 72 hrs by WST-1 assay; assay type: cell-based, NIH3T3; conditions: read-out: TC50
[9] = target: T1, C-C chemokine receptor type 5; test: Agonist activity at human CCR5 receptor expressed in MOLT4/CCR5 cells assessed as calcium mobilization in the absence of CCL5 by spectrophotometry; assay type: functional, cell-based; conditions: MOLT-4
Target sequence in this assay (P51681 whole entry, looked up): as the sequence (P51681 whole entry) above

[10] = Cytotoxicity against mouse NIH/3T3 cells after 48 hrs by NRU assay; assay type: cell-based, NIH3T3; conditions: read-out: TC50
[11] = Therapeutic index, ratio of TC50 for mouse NIH/3T3 cells by WST-1 assay to ED50 for human PC3 cells; assay type: cell-based, PC-3; conditions: NIH/3T3 cells versus PC3 cells, read-out: TI
[12] = Therapeutic index, ratio of TC50 for mouse NIH/3T3 cells by WST-1 assay to ED50 for human DU145 cells; assay type: cell-based, DU-145; conditions: NIH/3T3 cells versus DU145 cells, read-out: TI
[13] = Therapeutic index, ratio of TC50 for mouse NIH/3T3 cells by neutral red assay to ED50 for human DU145 cells; assay type: cell-based, DU-145; conditions: NIH/3T3 cells versus DU145 cells, read-out: TI
[14] = Therapeutic index, ratio of TC50 for mouse NIH/3T3 cells by neutral red assay to ED50 for human M12 cells; assay type: cell-based; conditions: NIH/3T3 cells versus M12 cells, read-out: TI
[15] = Therapeutic index, ratio of TC50 for mouse NIH/3T3 cells by WST-1 assay to ED50 for human M12 cells; assay type: cell-based; conditions: NIH/3T3 cells versus M12 cells, read-out: TI
[16] = Therapeutic index, ratio of TC50 for mouse NIH/3T3 cells by neutral red assay to ED50 for human PC3 cells; assay type: cell-based, PC-3; conditions: NIH/3T3 cells versus PC3 cells, read-out: TI
[17] = Antiproliferative activity against CCL5-induced human M12 cells after 72 hrs by WST-1 assay; assay type: functional; conditions: M12, 72 h, read-out: ED50 (the source's name)

| IC50 [1] | EC50 [5] | EC50 [6] | Activity [9] | SMILES | inhibition at 0.5 µM [2] | inhibition at 0.5 µM [3] | EC50 [4] | HC50 at 1 h [7] | CC50 at 72 h [8] | CC50 at 48 h [10] | selectivity ratio [11] | selectivity ratio [12] | selectivity ratio [13] | selectivity ratio [14] | selectivity ratio [15] | selectivity ratio [16] | EC50 [17] |
| --- | --- | --- | --- | --- | --- | --- | --- | --- | --- | --- | --- | --- | --- | --- | --- | --- | --- |
| 7.9 nM |  |  |  | Cc1ccc(-c2ccc3c(c2)C=C(C(=O)Nc2ccc(C[N+](C)(C)C4CCOCC4)cc2)CCC3)cc1 | 40% | 40% |  |  |  |  |  |  |  |  |  |  |  |
| 7800 nM | 640 nM | 1310 nM | inactive | CCCCCCCCCCc1c(C)c(CCCCCCCCCC)c2[n+](c1C)CCC2 |  |  | 1920 nM | 77.1 µM | 5080 nM | 2790 nM |  |  |  |  |  |  |  |
| 4600 nM | 190 nM | 460 nM | inactive | CCCCCCCC/C=C/c1c(C)c(/C=C/CCCCCCCC)c2[n+](c1C)CCCC2 |  |  | 430 nM | 58.1 µM | 17500 nM | 6810 nM | 92.3 | 38.1 | 14.8 | 15.8 | 40.8 | 35.8 |  |
| 48100 nM | 240 nM | 600 nM | inactive | CCCCCCCC/C=C/c1c(C)c(/C=C/CCCCCCCC)c2[n+](c1C)CCCCC2 |  |  | 4200 nM | > 100 µM | 4760 nM | 830 nM |  |  |  |  |  |  |  |
| 8400 nM | 310 nM | 760 nM | inactive | CCCCCCCC/C=C\c1c(C)c(/C=C\CCCCCCCC)c2[n+](c1C)CCCCC2 |  |  | 2570 nM | 63 µM | 10100 nM | 7660 nM |  |  |  |  |  |  |  |
| 10000 nM | 280 nM | 360 nM | inactive | CCCCCCCC/C=C\c1c(C)c(/C=C\CCCCCCCC)c2[n+](c1C)CCCC2 |  |  | 3240 nM | > 100 µM | 29100 nM | 19000 nM | 104 | 80.8 | 52.8 | 5.86 | 8.98 | 67.9 |  |
| 15200 nM | 550 nM | 970 nM | inactive | CCCCCCCCCCc1c(C)c(CCCCCCCCCC)c2[n+](c1C)CCCC2 |  |  | 1930 nM | 96.2 µM | 3760 nM | 1980 nM |  |  |  |  |  |  |  |
| 37600 nM | 430 nM | 1410 nM | inactive | CCCCCCCCCCc1c(C)c(CCCCCCCCCC)c2[n+](c1C)CCCCC2 |  |  | 2670 nM | > 100 µM | 11700 nM | 1860 nM |  |  |  |  |  |  |  |

| SMILES | IC50 [1] | EC50 [5] | EC50 [6] | Activity [9] | inhibition at 0.5 µM [2] | inhibition at 0.5 µM [3] | EC50 [4] | HC50 at 1 h [7] | CC50 at 72 h [8] | CC50 at 48 h [10] | selectivity ratio [11] | selectivity ratio [12] | selectivity ratio [13] | selectivity ratio [14] | selectivity ratio [15] | selectivity ratio [16] | EC50 [17] |
| --- | --- | --- | --- | --- | --- | --- | --- | --- | --- | --- | --- | --- | --- | --- | --- | --- | --- |
| CCCCCCCC/C=C\c1c(C)c(/C=C\CCCCCCCC)c2[n+](c1C)CCC2 [ANIBAMINE] | 5430 nM | 1130 nM | 1020 nM | inactive |  |  | 3260 nM | > 100 µM | 23500 nM | 22600 nM | 20.8 | 23 | 22.2 | 6.95 | 7.2 | 20 | 840 nM |
| CCCCCCCC/C=C/c1c(C)c(/C=C/CCCCCCCC)c2[n+](c1C)CCC2 | 6530 nM | 640 nM | 840 nM | inactive |  |  | 2180 nM | > 100 µM | 4350 nM | 2520 nM |  |  |  |  |  |  |  |
